Data: patent publication US7399744B2, “Methods for affecting body composition” (Amylin Pharmaceuticals, Inc., priority 2004, dated 2008)
pEC50: −log10 of the molar value. Marks after values point to notes of the source that are not given here. Ends that are not written are not given here.

Tests used:
[1] = Amylin or sibutramine by 28-day osmotic pump in high fat-fed rats (Example 1); type: in vivo, rat; details: for Body Weight / Caloric Intake: amylin 300 μg/kg/day or sibutramine 3 mg/kg/day, s.c. 28-day osmotic pump, high fat-fed rats, vs high fat-fed controls
Description: (§1) Low fat-fed rats (11% kcal from fat, D12329, Research Diets) were also implanted with pumps delivering vehicle. Food intake and body weight measurements were obtained weekly.
Rats were sacrificed by cardiac puncture under anesthesia. Triglyceride levels were measured on a COBAS Mira plasma analyzer (Roche), and leptin and insulin were assayed according to Linco Research rat RIA kits. Body composition was measured by chemical analysis (Covance Laboratories, Madison, Wis.).
All data are represented as mean±SEM. Analysis of variance was used to test for group differences.
The rats were fattened for 10 weeks prior to drug treatment. The high fat-fed rats were designated as obesity-prone (top 50% of weight gainers) or obesity-resistant (bottom 50%) based on the amount of weight gained through week 7.
In this study, an obesity-prone/obesity-resistant difference in drug interaction was found for protein weight in amylin-treated rats, and thus body composition parameters were measured separately in obesity-prone and obesity-resistant animals in each drug group (FIGS. 2A and 2B).

[2] = Chronic amylin infusion vs pair-feeding in lean HSD rats (Example 3); type: in vivo, rat
Description: Lean, male Harlan SPRAGLE DAWLEY® (HSD) (Harlan 7012) rats were maintained on “standard chow” (˜5% calories from fat).
Food intake and body weight were recorded daily (FIGS. 5, 6A, 6B, 7, 8A, and 8B).
On the final day of the experiment, rats were deeply anaesthetized and sacrificed by cardiac puncture. Plasma triglycerides, glucose, and cholesterol were measured on a COBAS Mira plasma Analyzer (Roche). Plasma leptin and insulin were measured using Linco Research kits. (See, FIGS. 9A-9F and 10A-10E.) Body composition was measured by chemical analysis (Covance Laboratories, Madison, Wis.). Fat pad weights of the epididymal, retroperitoneal, subcutaneous, and perirenal fat pads (all unilateral; analysis only done in DIO animals) were carefully dissected and weighed (FIGS. 12A-12D). In analyzing the tissue biochemistry, […] were powdered under liquid N2 and extracted in chloroform:methanol. 0.6% NaCl solution was then added and the tubes were vortexed, centrifuged, and the organic phase was transferred to glass scintillation vials and dried under a stream of N2. Dried lipids were resuspended and triglycerides were quantified by enzymatic assay (Pointe Scientific, Inc.). Tissue glycogen was measured by the amyloglucosidase method. (See FIGS. 11A-11D.)
All data are represented as mean±SEM. Analysis of variance (ANOVA) and Bonferroni post-hoc tests were used to test for group differences (SYSTAT® for Windows). A P-value <0.05 was considered significant. Graphs were generated using PRISM® 4 for Windows (Graphpad Software).

[3] = Chronic amylin infusion vs pair-feeding in DIO Levin rats (Example 3); type: in vivo, rat; parameters: reduction in body weight relative to vehicle controls / Weight (g) / Ash (%): dose or concentration left out as unconfirmed
[4] = Three doses of amylin by osmotic pump in high fat-fed rats (Example 2); type: in vivo, rat; details: for Body Weight / Caloric Intake: high fat-fed rats, vs high fat-fed controls
Text: as §1

[5] = Amylin with prior or concurrent food restriction in retired female breeder rats (Example 4); type: in vivo, rat; details: for % Change in fat / % Change in protein / Estimated Mean Weight change from treatment: amylin 100 μg/kg/day, retired female breeder rats, high fat diet
Text: Retired female breeder rats were maintained on a high fat diet (40% fat) for 8 weeks. Prior to drug treatment, rats were either ad-lib fed or food restricted to 95% of their starting body weight.
Changes in body weight and body composition are summarized in the table below and depicted in FIGS. 13A-13P.

[6] = Amylin versus pramlintide in DIO Levin rats (Example 5); type: in vivo, rat; details: 76 nmol/kg/day by osmotic mini-pump for 24 days
Description: 48 DIO Levin rats (an in-bred model of diet induced obesity) were used in this study. […] Food intake and body weight was measured daily. […] The pair-fed groups were only allowed to consume the daily intakes of their respective drug-treated groups. For body composition, rats were scanned in a rodent NMR before treatment and after sacrifice (at the end of the study), allowing for the ability to calculate changes in carcass fat and protein (e.g., lean tissue).

[7] = tested on: insulin-stimulated glycogen synthesis in soleus muscle; assay: Soleus muscle assay; type: cell-based; details: rat soleus muscle, inhibition of glucose incorporation into glycogen
Description: Concentrations of peptide dissolved in carrier-free buffers are determined by quantitative amino acid analysis, as described therein. The ability of compounds to act as agonists in this assay is determined by measuring EC50 values. […] Similar results were obtained with other agonist compounds listed above.

[8] = amylin 300 mg/kg/day, s.c. 28-day osmotic pump, body composition by chemical analysis
[9] = DIO rats, amylin 300 mg/kg/day, s.c. 28-day osmotic pump, body composition by chemical analysis
[10] = food access prior Ad-lib, during Ad-lib
[11] = food access prior Ad-lib, during Restricted
[12] = food access prior Restricted, during Ad-lib
[13] = food access prior Restricted, during Restricted

CC(C)CC(N(C)C)C1(c2ccc(Cl)cc2)CCC1 (stereo not drawn) [SIBUTRAMINE, sibutramine, reference compound]
Body Weight ([1]; Week 1): 6%*
Caloric Intake ([1]; Week 1): 45%*
Body Weight ([1]; Week 2): 6%*
Caloric Intake ([1]; Week 2): 8%*
Body Weight ([1]; Week 3): 6%*
Caloric Intake ([1]; Week 3): −1%
Body Weight ([1]; Week 4): 3%
Caloric Intake ([1]; Week 4): −3%

amylin: Amylin synthesized by Amylin Pharmaceuticals, Inc. by solid-phase chemistry; species not stated (KCNTATCATQRLANFLVHSSNNFGAILSSTNVGSNTY; not fully specified (C-terminus, bridges); cysteine pairing not given here; UniProt P10997 34-70, looked up)
percent body fat relative to pair-fed [2]: lower
percent protein [2]: remained relatively constant
weight gain compared to vehicle rats [2]: significant reduction
reduction in body weight relative to vehicle controls ([2]; amylin 300 μg/kg/day, osmotic pump): 12%
Fat (%) ([2]; amylin 300 μg/kg/day, s.c. 28-day osmotic pump, body composition by chemical analysis): 7.2 ± 1.5 %
Weight (g) ([2]; amylin 300 μg/kg/day, s.c. 28-day osmotic pump, end of study): 392.25* g
Moisture (%) [2, 8]: 67.57 ± 0.7 %
Protein (%) [2, 8]: 20.67 ± 0.74%
Body Weight ([1]; Week 1): 6%*
Caloric Intake ([1]; Week 1): 45%*
Body Weight ([1]; Week 2): 7%*
Caloric Intake ([1]; Week 2): 14%*
Body Weight ([1]; Week 3): 8%*
Caloric Intake ([1]; Week 3): 10%*
Body Weight ([1]; Week 4): 8%*
Caloric Intake ([1]; Week 4): 10%*
tolerance/resistance ([1]; administered by osmotic pump): did not induce tolerance/resistance
protein compared to the control group (vehicle only) ([1]; obesity-prone rats): increase
percent body fat ([3]; DIO rats): significant decrease
percent protein ([3]; DIO rats): significant preservation or gain
weight gain compared to vehicle rats ([3]; DIO rats): significant reduction
Fat (%) [3, 9]: 24.3 ± 6.5 %
Moisture (%) [3, 9]: 56.68 ± 4.4 %
Protein (%) [3, 9]: 18.09 ± 1.68 %
reduction in body weight relative to vehicle controls ([3]; DIO rats, osmotic pump): 12%
Ash (%) ([3]; DIO rats, s.c. 28-day osmotic pump, body composition by chemical analysis): 1.65 ± 0.34%
Weight (g) ([3]; DIO rats, s.c. 28-day osmotic pump, end of study): 548.94* g
muscle glycogen content ([3]; tissue biochemistry, amyloglucosidase method): significantly reduced
body weight gain ([4]; 30 μg/kg/day): reduction
Body Weight ([4]; 30 μg/kg/day amylin, Week 1): 5%*
Caloric Intake ([4]; 30 μg/kg/day amylin, Week 1): 32%*
Body Weight ([4]; 30 μg/kg/day amylin, Week 2): 7%*
Caloric Intake ([4]; 30 μg/kg/day amylin, Week 2): 17%*
Body Weight ([4]; 30 μg/kg/day amylin, Week 3): 7%*
Caloric Intake ([4]; 30 μg/kg/day amylin, Week 3): 10%
Body Weight ([4]; 30 μg/kg/day amylin, Week 4): 7%*
Caloric Intake ([4]; 30 μg/kg/day amylin, Week 4): 8%
Body Weight ([4]; 100 μg/kg/day amylin, Week 1): 10%*
Caloric Intake ([4]; 100 μg/kg/day amylin, Week 1): 45%*
Body Weight ([4]; 100 μg/kg/day amylin, Week 2): 10%*
Caloric Intake ([4]; 100 μg/kg/day amylin, Week 2): 19%*
Body Weight ([4]; 100 μg/kg/day amylin, Week 3): 9%*
Caloric Intake ([4]; 100 μg/kg/day amylin, Week 3): 4%
Body Weight ([4]; 100 μg/kg/day amylin, Week 4): 8%*
Caloric Intake ([4]; 100 μg/kg/day amylin, Week 4): 9%
Body Weight ([4]; 300 μg/kg/day amylin, Week 1): 7%*
Caloric Intake ([4]; 300 μg/kg/day amylin, Week 1): 41%*
Body Weight ([4]; 300 μg/kg/day amylin, Week 2): 8%*
Caloric Intake ([4]; 300 μg/kg/day amylin, Week 2): 15%*
Body Weight ([4]; 300 μg/kg/day amylin, Week 3): 10%*
Caloric Intake ([4]; 300 μg/kg/day amylin, Week 3): 19%*
Body Weight ([4]; 300 μg/kg/day amylin, Week 4): 12%*
Caloric Intake ([4]; 300 μg/kg/day amylin, Week 4): 19%*
effects on food intake and body weight across doses ([4]; 30, 100 and 300 μg/kg/day): dose-dependent
food intake versus vehicle treated counterparts ([5]; FIGS. 13E-13H): ate less
Body Weight ([5]; all treatment conditions): significantly reduced
percent protein ([5]; except in ad-lib fed then food restricted group): increases
percent body fat ([5]; except in chronically restricted animals): significant decreases
% Change in fat [5, 10]: −10.1 ± 0.5%
% Change in protein [5, 10]: 0.8 ± 0.1%
Estimated Mean Weight change from treatment [5, 10]: -21.8 ± 1.4 g
% Change in fat [5, 11]: −9.9 ± 0.9%
% Change in protein [5, 11]: 0.7 ± 0.1%
Estimated Mean Weight change from treatment [5, 11]: -23.1 ± 2.3 g
% Change in fat [5, 12]: −11.5 ± 0.6%
% Change in protein [5, 12]: 1.1 ± 0.1%
Estimated Mean Weight change from treatment [5, 12]: -18.2 ± 2.5 g
% Change in fat [5, 13]: −11.1 ± 1.0%
% Change in protein [5, 13]: 1.0 ± 0.1%
Estimated Mean Weight change from treatment [5, 13]: -17.1 ± 2.0 g
slowing body weight gain [6]: significant effect
effects on body composition ([6]; rodent NMR): favorable effects

^2,37h-Amylin
pEC50 [7]: 8.79
